Experiments:
[1] = tested on: Human immunodeficiency virus 1; experiment: Antiviral activity against HIV1 3B in human MT4 cells assessed as reduction in p24 antigen levels after 72 hrs by multi-cycle viral replication assay in presence of 50% normal human serum; type: functional
[2] = tested on: Human immunodeficiency virus 1; experiment: Ratio of IC50 for HIV1 3B with integrase N155S mutation to IC50 for wild type HIV1 3B by single-cycle viral replication assay in presence of 10% FBS; type: functional
[3] = tested on: Human immunodeficiency virus 1; experiment: Antiviral activity against HIV1 3B in human MT4 cells assessed as reduction in p24 antigen levels after 72 hrs by multi-cycle viral replication assay in presence of 10% FBS; type: functional
[4] = tested on: Human immunodeficiency virus 1; experiment: Ratio of IC50 for HIV1 3B with integrase F121Y mutation to IC50 for wild type HIV1 3B by single-cycle viral replication assay in presence of 10% FBS; type: functional
[5] = tested on: Human immunodeficiency virus 1; experiment: Antiviral activity against wild type HIV1 3B in human P4/R5 cells assessed as beta-galactosidase activity by single-cycle viral replication assay in presence of 10% FBS; type: functional, organism-based; conditions: Human immunodeficiency virus 1, 3B
[6] = tested on: Human immunodeficiency virus 1; experiment: Ratio of IC50 for HIV1 3B with integrase T66I/S153Y mutation to IC50 for wild type HIV1 3B by single-cycle viral replication assay in presence of 10% FBS; type: functional
[7] = Plasma half life in Sprague-Dawley rat at 2 mg/kg, iv; type: ADME, organism-based; set-up: dose 2 mg/kg, route intravenous
[8] = Oral bioavailability in Sprague-Dawley rat at 10 mg/kg; type: ADME, organism-based; conditions: in vivo
[9] = Clearance in Sprague-Dawley rat at 2 mg/kg, iv; type: ADME, organism-based; set-up: dose 2 mg/kg, route intravenous; conditions: in vivo
[10] = Volume of distribution in Sprague-Dawley rat at 2 mg/kg, iv; type: ADME, organism-based; set-up: dose 2 mg/kg, route intravenous; conditions: in vivo
[11] = tested on: Human immunodeficiency virus 1; experiment: Antiviral activity against HIV1 with integrase Q148K mutation relative to wild type HIV1; type: functional
Canis familiaris = experiment: Half life in iv dosed Beagle dog; type: ADME, organism-based, Canis lupus familiaris; conditions: in vivo
[12] = Clearance in Beagle dog; type: ADME, organism-based, Canis lupus familiaris; conditions: in vivo
[13] = target: Human immunodeficiency virus type 1 integrase (Human immunodeficiency virus 1, UniProt Q7ZJM1); experiment: Inhibition of HIV1 integrase strand transfer activity
Sequence of Human immunodeficiency virus type 1 integrase (Q7ZJM1 whole entry): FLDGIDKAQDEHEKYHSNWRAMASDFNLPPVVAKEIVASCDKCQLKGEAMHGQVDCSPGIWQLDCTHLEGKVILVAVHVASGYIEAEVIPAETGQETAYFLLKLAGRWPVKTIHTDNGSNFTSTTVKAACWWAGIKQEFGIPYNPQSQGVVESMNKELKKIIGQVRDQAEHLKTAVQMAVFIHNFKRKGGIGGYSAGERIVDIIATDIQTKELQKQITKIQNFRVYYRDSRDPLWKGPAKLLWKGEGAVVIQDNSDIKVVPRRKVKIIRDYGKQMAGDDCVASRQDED

[14] = Oral bioavailability in Beagle dog; type: ADME, organism-based, Canis lupus familiaris; conditions: in vivo

SMILES: CCN1C[C@@H](C)n2c(c(O)c3c(=O)n(Cc4ccc(F)cc4)ncc32)C1=O
- IC95 [1]: 500 nM
- Ratio IC50 [2]: 10
- Antiviral activity (p24 reduction) [3]: 250 nM
- Ratio IC50 [4]: 8
- IC50 [5]: 52 nM
- Ratio IC50 [6]: 9

SMILES: CCN1C[C@H](C)n2c(c(O)c3c(=O)n(Cc4ccc(F)cc4)nc(C)c32)C1=O
- IC95 [1]: 40 nM
- Ratio IC50 [2]: 6
- Antiviral activity (p24 reduction) [3]: 17 nM
- Ratio IC50 [4]: 1
- half-life [7]: 6.2 h
- bioavailability [8]: 7%
- clearance [9]: 17 mL/min/kg
- IC50 [5]: 14 nM
- Ratio IC50 [6]: 1
- Vd [10]: 2.6 L/kg

SMILES: CN1CCn2c(c(O)c3c(=O)n(Cc4ccc(F)cc4)ncc32)C1=O
- IC95 [1]: 380 nM
- Ratio IC50 [2]: 53
- Antiviral activity (p24 reduction) [3]: 120 nM
- Ratio IC50 [4]: 11
- IC50 [5]: 72 nM
- Ratio IC50 [6]: 7

SMILES: CCN1C[C@H](C)n2c(c(O)c3c(=O)n(Cc4ccc(F)cc4)ncc32)C1=O
- IC95 [1]: 46 nM
- Ratio IC50 [2]: 27
- Antiviral activity (p24 reduction) [3]: 24 nM
- Ratio IC50 [4]: 5
- half-life [7]: 6 h
- bioavailability [8]: 31%
- clearance [9]: 0.5 mL/min/kg
- IC50 [5]: 16 nM
- Ratio IC50 [6]: 1
- Vd [10]: 0.2 L/kg

SMILES: CCN1CC(C)(C)n2c(c(O)c3c(=O)n(Cc4ccc(F)cc4)ncc32)C1=O
- IC95 [1]: 30 nM
- Ratio IC50 [2]: 27
- Antiviral activity (p24 reduction) [3]: 10 nM
- Ratio IC50 [4]: 10
- half-life [7]: 5.2 h
- bioavailability [8]: 13%
- clearance [9]: 0.68 mL/min/kg
- IC50 [5]: 19 nM
- Ratio IC50 [6]: 3
- Vd [10]: 0.3 L/kg

SMILES: CC(C)N1C[C@H](C)n2c(c(O)c3c(=O)n(Cc4ccc(F)c(Cl)c4)ncc32)C1=O
- IC95 [1]: 220 nM
- Ratio IC50 [2]: 3
- Antiviral activity (p24 reduction) [3]: 30 nM
- Ratio IC50 [4]: 1
- half-life [7]: 13 h
- bioavailability [8]: 14%
- clearance [9]: 0.17 mL/min/kg
- IC50 [5]: 28 nM
- Ratio IC50 [6]: 1
- Vd [10]: 0.2 L/kg

SMILES: Cc1nn(Cc2ccc(F)cc2)c(=O)c2c(O)c3n(c12)CCN(C)C3=O
- IC95 [1]: 130 nM
- Ratio IC50 [2]: 48
- Antiviral activity (p24 reduction) [3]: 43 nM
- Ratio IC50 [4]: 10
- IC50 [5]: 21 nM
- Ratio IC50 [6]: 8

SMILES: Cc1nn(Cc2ccc(F)cc2)c(=O)c2c(O)c3n(c12)[C@@H](C)CN(C(C)C)C3=O
- fold change (FC) [11]: 3
- IC95 [1]: 35 nM
- Ratio IC50 [2]: 2
- Antiviral activity (p24 reduction) [3]: 16 nM
- T1/2 (Canis familiaris): 1 h
- Ratio IC50 [4]: 1
- clearance [12]: 10 mL/min/kg
- IC50 [13]: ≤ 10 nM
- half-life [7]: 5.3 h
- bioavailability [8]: 17%
- clearance [9]: 3 mL/min/kg
- IC50 [5]: 10 nM
- Ratio IC50 [6]: 1
- bioavailability [14]: < 5%
- Vd [10]: 0.3 L/kg

SMILES: Cc1nn(Cc2ccc(F)cc2)c(=O)c2c(O)c3n(c12)[C@H](C)CN(C)C3=O
- IC95 [1]: 1000 nM
- Ratio IC50 [2]: 91
- Antiviral activity (p24 reduction) [3]: 250 nM
- Ratio IC50 [4]: 9
- IC50 [5]: 66 nM
- Ratio IC50 [6]: 8

SMILES: Cc1nn(Cc2ccc(F)cc2)c(=O)c2c(O)c3n(c12)[C@@H](C)CN(C)C3=O
- IC95 [1]: 31 nM
- Ratio IC50 [2]: 20
- Antiviral activity (p24 reduction) [3]: 10 nM
- Ratio IC50 [4]: 4
- IC50 [5]: 10 nM
- Ratio IC50 [6]: 2

SMILES: CCN1C[C@H](C)n2c(c(O)c3c(=O)n(Cc4ccc(F)c(Cl)c4)ncc32)C1=O
- IC95 [1]: 160 nM
- Ratio IC50 [2]: 7
- Antiviral activity (p24 reduction) [3]: 31 nM
- Ratio IC50 [4]: 2
- half-life [7]: 9.5 h
- bioavailability [8]: 13%
- clearance [9]: 0.27 mL/min/kg
- IC50 [5]: 19 nM
- Ratio IC50 [6]: 1
- Vd [10]: 0.3 L/kg

SMILES: CC(C)N1C[C@H](C)n2c(c(O)c3c(=O)n(Cc4ccc(F)cc4)ncc32)C1=O
- fold change (FC) [11]: 45
- IC95 [1]: 26 nM
- Ratio IC50 [2]: 6
- Antiviral activity (p24 reduction) [3]: 13 nM
- T1/2 (Canis familiaris): 1 h
- Ratio IC50 [4]: 2
- clearance [12]: 10 mL/min/kg
- IC50 [13]: ≤ 10 nM
- half-life [7]: 12 h
- bioavailability [8]: 21%
- clearance [9]: 0.17 mL/min/kg
- IC50 [5]: 19 nM
- Ratio IC50 [6]: 1
- bioavailability [14]: < 5%
- Vd [10]: 0.2 L/kg

From ChEMBL document CHEMBL1156547, “10-Hydroxy-7,8-dihydropyrazino[1',2':1,5]pyrrolo[2,3-d]pyridazine-1,9(2H,6H)-diones: potent, orally bioavailable HIV-1 integrase strand-transfer inhibitors with activity against integrase mutants” (Bioorg Med Chem Lett, 2008)
